Experiments:
[1] = molecular target: T1, CXCR2 (Homo sapiens, UniProt P25025); assay: NanoBRET β-arrestin1 recruitment inhibition assay (NanoLux) in HEK293A cells; format: cell-based; settings: for Imax βarr1 (maximum observed inhibitory effect): normalized to Imax of navarixin = 100%
T1 construct: expressed in transfected cells
T1 sequence (P25025 1-360): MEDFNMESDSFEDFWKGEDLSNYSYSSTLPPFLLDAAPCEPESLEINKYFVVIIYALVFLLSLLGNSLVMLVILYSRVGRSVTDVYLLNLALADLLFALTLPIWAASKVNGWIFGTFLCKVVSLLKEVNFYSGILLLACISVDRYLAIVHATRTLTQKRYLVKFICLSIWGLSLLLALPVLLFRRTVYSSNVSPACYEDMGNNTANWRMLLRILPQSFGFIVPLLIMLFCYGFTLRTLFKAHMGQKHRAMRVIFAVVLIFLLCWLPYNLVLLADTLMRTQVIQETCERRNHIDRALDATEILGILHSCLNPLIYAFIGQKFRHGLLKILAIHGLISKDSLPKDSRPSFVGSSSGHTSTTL
Method: Cells were trypsinized and resuspended at 3 × 10^5 cell/mL in the growth medium, whereafter they were incubated for 2 hours at RT. Cells were transfected in suspension using FuGENE® HD Transfection Reagent at a 3:1 reagent to DNA ratio in Opti-MEMTM I Reduced-Serum Medium, with the final DNA concentration of 1 μg/μL. The transfection mixture was incubated for 10 min at RT before adding it to the cell suspension. Transfected cells were seeded at 3.0 × 10^4 cells/well in a white, clear, flat-bottom 96-well plate coated with 100 μg/mL poly-D-lysin ([…], Sigma Aldrich) and incubated for 48 h at 37°C and 5% CO2. HEK293A cells were transiently co-transfected with plasmids encoding β-arrestin1 protein tagged with NLuc (donor) and CXCR2 protein tagged with mNeonGreen (mNG) acceptor in a 1:10 donor to acceptor ratio, as described previously ([Luís et al., 2022]). All subsequent steps are identical to those in “NanoBRET-based G protein activation inhibition assay,” which are described above. Measurements were acquired using a 440- to 480-nm donor emission filter (#0200-6179, Molecular Devices) and a 515- to 575-nm acceptor emission filter (#0200-6203, Molecular Devices) BRET ratios were extracted from ScreenWorks software (Molecular Devices) and represent the ratio between the acceptor emission of […]2 or mNG (G protein or β-arrestin recruitment, respectively) and NLuc donor emission. The basal BRET ratio was defined as the average BRET ratio of the five consecutive readings preceding ligand addition. Changes in BRET values post ligand administration (ΔBRET) were calculated for each well as a percentage difference to the previously defined basal BRET ratio. Average ΔBRET values were baseline corrected by subtracting the average negative control BRET ratio (unstimulated condition). […] AUCs were normalized to the positive control (stimulated condition); whereafter, dose-response curves were fitted to log (inhibitor) vs response (three parameters) in GraphPad 10.2.0 (GraphPad Software). […] Calculation 1: calculation of the BRET signal. • 1. […] NC correctedΔBRET=Δ[…]. • 4. a. Neg AUC of NC correctedΔBRET=Gα activation read out. b. Pos AUC of NC correctedΔBRET=β-arrestin recruitment.

[2] = molecular target: T1, CXCR2; assay: NanoBRET-based G protein activation inhibition assay (REGA-SIGN Gαi1 dissociation) in HEK293A.CXCR2 cells; format: cell-based; settings: n = 3; for IC50: mean; for Imax Gαi1 (maximum observed inhibitory effect): normalized to Imax of navarixin = 100%
Method: Cells were trypsinized and resuspended at 3 × 10^5 cell/mL in the growth medium, whereafter they were incubated for 2 hours at RT. Cells were transfected in suspension using FuGENE® HD Transfection Reagent at a 3:1 reagent to DNA ratio in Opti-MEMTM I Reduced-Serum Medium, with the final DNA concentration of 1 μg/μL. The transfection mixture was incubated for 10 min at RT before adding it to the cell suspension. Transfected cells were seeded at 3.0 × 10^4 cells/well in a white, clear, flat-bottom 96-well plate coated with 100 μg/mL poly-D-lysin ([…], Sigma Aldrich) and incubated for 48 h at 37°C and 5% CO2. […] (2023)]. Following the 48-h incubation period, cells were washed with the assay buffer. Compounds were serially diluted in 1:500 Nano-Glo® Vivazine^TM working solution (#N2581, Promega), and 90 μL of compound/Vivazine mix was added, followed by incubation for 45 min at 37°C and 5% CO2. Plates were transferred to the FLIPR Penta system (Molecular Devices) at 37°C, and all steps onward are automated and performed by the FLIPR Penta system. After a 10-min equilibration period, the baseline BRET signal was determined by five consecutive reads followed by automatic administration of 10 μL of 10× ligand (Table 1) to the cell plate. Changes in the BRET signal was measured for 10 min, with each read spaced by 2.5 s. […] BRET ratios were extracted from ScreenWorks software (Molecular Devices) and represent the ratio between the acceptor emission of […]2 or mNG (G protein or β-arrestin recruitment, respectively) and NLuc donor emission. The basal BRET ratio was defined as the average BRET ratio of the five consecutive readings preceding ligand addition. Changes in BRET values post ligand administration (ΔBRET) were calculated for each well as a percentage difference to the previously defined basal BRET ratio. Average ΔBRET values were baseline corrected by subtracting the average negative control BRET ratio (unstimulated condition). […] AUCs were normalized to the positive control (stimulated condition); whereafter, dose-response curves were fitted to log (inhibitor) vs response (three parameters) in GraphPad 10.2.0 (GraphPad Software). […] Calculation 1: calculation of the BRET signal. • 1. […] NC correctedΔBRET=Δ[…]. • 4. a. Neg AUC of NC correctedΔBRET=Gα activation read out. b. Pos AUC of NC correctedΔBRET=β-arrestin recruitment.

[3] = CXCL1 at EC80, mean, n = 3, read-out: IC50 βarr1
[4] = CXCL2 at EC80, mean, n = 3, read-out: IC50 βarr1
[5] = CXCL3 at EC80, mean, n = 3, read-out: IC50 βarr1
[6] = CXCL5 at EC80, mean, n = 3, read-out: IC50 βarr1
[7] = CXCL6 at EC80, mean, n = 3, read-out: IC50 βarr1
[8] = CXCL7 at EC80, mean, n = 3, read-out: IC50 βarr1
[9] = CXCL8 at EC80, mean, n = 3, read-out: IC50 βarr1

Structure (SMILES)	IC50 [1, 3] [µM]	Imax βarr1 (maximum observed inhibitory effect) ([1]; CXCL1 at EC80, n = 3) [%]	IC50 [1, 4] [µM]	Imax βarr1 (maximum observed inhibitory effect) ([1]; CXCL2 at EC80, n = 3) [%]	IC50 [1, 5] [µM]	Imax βarr1 (maximum observed inhibitory effect) ([1]; CXCL3 at EC80, n = 3) [%]	IC50 [1, 6] [µM]	Imax βarr1 (maximum observed inhibitory effect) ([1]; CXCL5 at EC80, n = 3) [%]	IC50 [1, 7] [µM]	Imax βarr1 (maximum observed inhibitory effect) ([1]; CXCL6 at EC80, n = 3) [%]	IC50 [1, 8] [µM]	Imax βarr1 (maximum observed inhibitory effect) ([1]; CXCL7 at EC80, n = 3) [%]	IC50 [1, 9] [µM]	Imax βarr1 (maximum observed inhibitory effect) ([1]; CXCL8 at EC80, n = 3) [%]	IC50 ([2]; CXCL1 at EC80) [µM]	IC50 ([2]; CXCL2 at EC80) [µM]	Imax Gαi1 (maximum observed inhibitory effect) ([2]; CXCL2 at EC80) [%]	IC50 ([2]; CXCL3 at EC80) [µM]	IC50 ([2]; CXCL5 at EC80) [µM]	Imax Gαi1 (maximum observed inhibitory effect) ([2]; CXCL5 at EC80) [%]	also measured
CC(CO)Nc1nc(SCc2cccc(F)c2F)nc2oncc12 (centres unmarked) [MVH-24]	0.17 ± 0.06	100	0.08 ± 0.04	100	0.14 ± 0.05	99.42 ± 0.85	0.09 ± 0.03	100	0.07 ± 0.02	100	0.03 ± 0.01	100	0.15 ± 0.04	100	2.08 ± 0.42	1.21 ± 0.63	100	14.8 ± 10.1	1.43 ± 0.71	98.52 ± 2.04	IC50 ([1]; range across ELR+ chemokines, read-out: IC50 β-arrestin1 recruitment inhibition): 0.03 to 0.17 µM; Imax Gαi1 (maximum observed inhibitory effect) ([2]; CXCL1 at EC80): 96.47 ± 3.69%; Imax Gαi1 (maximum observed inhibitory effect) ([2]; CXCL3 at EC80): 100%; IC50 ([2]; CXCL6 at EC80): 1.06 ± 0.75 µM; Imax Gαi1 (maximum observed inhibitory effect) ([2]; CXCL6 at EC80): 100%; IC50 ([2]; CXCL7 at EC80): 0.75 ± 0.26 µM; Imax Gαi1 (maximum observed inhibitory effect) ([2]; CXCL7 at EC80): 94.94 ± 3.57%; IC50 ([2]; CXCL8 at EC80): 2.49 ± 1.24 µM; Imax Gαi1 (maximum observed inhibitory effect) ([2]; CXCL8 at EC80): 100%
CC(CO)Nc1nc(SCc2cccc(F)c2F)nc2cnccc12 (centres unmarked) [MVH-3]	0.98 ± 0.18	100	0.58 ± 0.17	100	1.59 ± 0.43	100	0.84 ± 0.16	100	0.7 ± 0.17	100	0.16 ± 0.05	95.75 ± 3.49	1.34 ± 0.45	90.8 ± 4.62	> 15	6.24 ± 1.15	100	> 15	10.2 ± 6.52	93.7 ± 5.53	IC50 ([2]; CXCL6 at EC80): 7.53 ± 1.74 µM; IC50 ([2]; CXCL7 at EC80): 10.9 ± 9.58 µM; IC50 ([2]; CXCL8 at EC80): > 15 µM
CC(CCO)Nc1nc(SCc2cccc(F)c2F)nc2[nH]nnc12 (centres unmarked) [MVH-33]	1.46 ± 0.58	98.15 ± 4.28	0.66 ± 0.21	92.98 ± 2.58	1.53 ± 0.26	96.91 ± 2.10	1.12 ± 0.26	100	0.79 ± 0.37	93.68 ± 7.03	0.34 ± 0.13	100	1.51 ± 1.01	100	> 15	> 15	<50	> 15	13.1 ± 4.76	100	Imax Gαi1 (maximum observed inhibitory effect) ([2]; CXCL1 at EC80): <50%; Imax Gαi1 (maximum observed inhibitory effect) ([2]; CXCL3 at EC80): <50%; IC50 ([2]; CXCL6 at EC80): > 15 µM; Imax Gαi1 (maximum observed inhibitory effect) ([2]; CXCL6 at EC80): <50%; IC50 ([2]; CXCL7 at EC80): 10.1 ± 4.8 µM; Imax Gαi1 (maximum observed inhibitory effect) ([2]; CXCL7 at EC80): 98.43 ± 2.62%; IC50 ([2]; CXCL8 at EC80): > 15 µM; Imax Gαi1 (maximum observed inhibitory effect) ([2]; CXCL8 at EC80): <50%
